US20150217004A1, “CARBAMATE COMPOUNDS AND METHODS OF USE IN DISEASES OF THE NERVOUS SYSTEM” (priority 2012, published 2015)

Tests used:
BuChE = assay: In vitro autoradiography with human tissues (Alzheimer's disease or cognitively normal); assay type: binding; conditions: 3.7 MBq, 18 hours at 37° C., maleate buffer pH 6.8, FIG. 3
Description: Human tissue from Alzheimer's disease or cognitively normal individuals was obtained from the Maritime Brain Tissue Bank (Halifax, Canada). These tissues were adjacent […] sections through areas such as the orbitofrontal cortex. The tissues were mounted on glass slides, in maleate buffer pH 6.8, and gently heated on a slide warmer until firmly adhered. The mounted tissue was rehydrated twice for 5 min, in maleate buffer pH 6.8, before placed in a coplin jar. Nine sections occupied each jar. 25 mL of maleate buffer pH 6.8 containing Phenyl 4-([^123I]iodo)phenylcarbamate (3.7 MBq) was added to the coplin jar and the tissue incubated for 18 hours at 37° C. with gentle agitation. At the completion of incubation, the tissue was rinsed twice for 1 min in distilled water and the slides dried on a slide wanner. The tissue was exposed to a high resolution phosphorimaging screen (GE Healthcare) for 22.5 hours. The screen was scanned with a typhoon 9400 imager (GE Healthcare) to produce the autoradiogram. Image contrast was adjusted with Adobe Photoshop CS5.

human recombinant AChE = human recombinant AChE (Homo sapiens, UniProt P22303); assay: Esterase activity assay (Ellman), enzyme deactivation over time, AChE; assay type: biochemical; conditions: FIG. 2
Description: (§1) The ability of the compounds to inhibit cholinesterases was evaluated by Ellman's spectrophotometric method (Ellman, G. L., Courtney, K. D., Andres, V. Jr. and Featherstone, R. M. A new and rapid colorimetric determination of acetylcholinesterase activity. Biochemical Pharmacology, 7, 88-95 (1961)) using human recombinant AChE and. acetylthiocholine as the substrate, and human serum BuChE with butyrylthiocholine as the substrate.
(§2) To test for enzyme deactivation over time, loss of enzyme activity was monitored. Briefly, 1.35 mL of buffered DTNB solution (pH 8.0), 0.05 mL of enzyme (0.03 units of human recombinant AChE or 0.05 units of purified human serum BuChE in 0.1% aqueous gelatin containing 0.01% sodium azide) and 0.05 mL of the carbamate dissolved in 50% aqueous acetonitrile at 0.5-5 mM, depending on solubility, were combined in a stoppered cuvette of 1 cm path length. After mixing and bringing the absorbance to zero, 0.05 mL of 4.8 mM aqueous acetyl- or butyrylthiocholine substrate solution was added to the cuvette after incubation of the enzyme with carbamate and buffered DTNB for periods of 30 min or longer. A zero-time sample was also obtained by adding enzyme last to initiate reaction and the second-order rate constants for enzyme deactivation (ka values) were determined. The ka value was calculated by plotting ln (e0/et)/[I] against time, where e0 is the enzymatic activity at time zero (without preincubation of enzyme and inhibitor), et is the enzymatic activity at time t min of preincubation, and [I] is the molar concentration of inhibitor. The slope of this plot gave the second-order rate constant. Experiments were generally done at least in triplicate and the values averaged.

human serum BuChE = biological target: T1, human serum BuChE (Homo sapiens, UniProt P06276); assay: Esterase activity assay (Ellman), enzyme deactivation over time, BuChE; assay type: biochemical; conditions: FIG. 2
T1 construct: 0.05 units of purified human serum BuChE; from tissue; host or cells: human serum
Description: as §1, §2

Chain of human recombinant AChE (P22303 32-614): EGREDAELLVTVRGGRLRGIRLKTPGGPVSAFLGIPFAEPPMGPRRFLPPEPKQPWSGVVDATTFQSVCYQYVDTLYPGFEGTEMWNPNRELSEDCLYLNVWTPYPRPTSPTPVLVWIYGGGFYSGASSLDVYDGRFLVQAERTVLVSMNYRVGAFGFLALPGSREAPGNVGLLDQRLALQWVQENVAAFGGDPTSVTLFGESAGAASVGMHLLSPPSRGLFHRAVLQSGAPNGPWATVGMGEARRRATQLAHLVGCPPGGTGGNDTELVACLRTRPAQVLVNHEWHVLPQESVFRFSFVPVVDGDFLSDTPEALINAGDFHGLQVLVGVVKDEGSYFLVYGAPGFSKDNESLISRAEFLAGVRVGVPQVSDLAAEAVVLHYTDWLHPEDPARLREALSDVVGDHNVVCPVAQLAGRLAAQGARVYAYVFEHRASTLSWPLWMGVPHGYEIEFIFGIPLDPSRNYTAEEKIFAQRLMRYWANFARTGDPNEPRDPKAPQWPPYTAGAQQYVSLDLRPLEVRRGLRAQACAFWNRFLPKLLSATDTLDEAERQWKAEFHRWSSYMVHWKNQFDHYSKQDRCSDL
T1 sequence (P06276 29-602): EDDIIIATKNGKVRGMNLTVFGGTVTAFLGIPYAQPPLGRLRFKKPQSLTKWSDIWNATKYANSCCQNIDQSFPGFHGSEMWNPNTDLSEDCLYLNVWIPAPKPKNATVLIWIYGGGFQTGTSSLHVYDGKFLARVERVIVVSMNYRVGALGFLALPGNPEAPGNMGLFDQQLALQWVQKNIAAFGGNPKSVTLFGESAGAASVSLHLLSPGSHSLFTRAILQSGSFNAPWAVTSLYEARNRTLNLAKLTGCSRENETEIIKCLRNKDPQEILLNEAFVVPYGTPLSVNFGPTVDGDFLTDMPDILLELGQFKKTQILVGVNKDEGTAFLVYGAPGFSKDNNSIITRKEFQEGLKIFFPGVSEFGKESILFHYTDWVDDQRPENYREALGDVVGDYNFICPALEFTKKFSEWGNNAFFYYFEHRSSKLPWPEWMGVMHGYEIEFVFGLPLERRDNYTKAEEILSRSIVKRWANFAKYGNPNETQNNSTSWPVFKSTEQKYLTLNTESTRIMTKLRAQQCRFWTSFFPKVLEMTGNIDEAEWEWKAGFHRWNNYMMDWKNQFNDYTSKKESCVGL

## O=C(Nc1ccc(F)cc1)Oc1ccccc1
other
  melting point: 160 to 161 °C

## O=C(Nc1ccc([123I])cc1)Oc1ccccc1 [Phenyl 4-([^123I]iodo)phenylcarbamate]
BuChE
  autoradiography: distinction of normal, normal-with-Aβ-plaques and AD brain tissue: normal-with-Aβ-plaques and AD brain tissue can be distinguished

## O=C(Nc1ccc(I)cc1)Oc1ccccc1 [phenyl 4-(iodo)phenylcarbamate, Phenyl 4-(iodo)phenylcarbamate]
Human recombinant AChE
  effect on esterase activity (inhibition): clearly has inhibitory effects
  persistence of interaction (ligand bound to enzyme): persisted for hours
  rate of enzymatic deactivation: proceeded rapidly
Human serum BuChE
  effect on esterase activity (inhibition): clearly has inhibitory effects
  persistence of interaction (ligand bound to enzyme): persisted for hours
  rate of enzymatic deactivation: proceeded rapidly
